The source of these data is patent publication US12509424B2, “Compound and composition as PDGF receptor kinase inhibitor” (NIPPON SHINYAKU CO., LTD., priority 2019, dated 2025).

In experiment [1] the target is PDGFR-β (Homo sapiens (Human), UniProt P09619). As to the kind of experiment: PDGFR-β tyrosine kinase inhibitory action (HTRF KinEASE-TK). Format: biochemical. The conditions noted are these: PDGFR-β enzyme 1 ng/μL, 30° C. for 30 minutes; read-out: PDGF-β IC50. The gist of the method:
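Recombinant PDGFR-β at 1 ng/μL final with TK substrate-3-biotin in a substrate solution containing 0.6 μM ATP; buffer 50 mM HEPES pH 7.0, 5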
Background: In TR-FRET formats the signal depends on donor and acceptor labels being close together.

Experiment [2] has as its target TEL-PDGFRβ fusion gene transfected cells (Ba/F3). As to the kind of experiment: Suppression of proliferation of TEL-PDGFRβ fusion gene transfected Ba/F3 cells. It counts as cell-based, human. As to conditions: TEL-PDGFRβ expressing Ba/F3 cells, 72 hours, final concentration 0.1 to 10,000 nM; read-out: PDGFR β/BaF3 proliferation inhibition (IC50). The text has this: 2. Preparation of Test Substance
4. Analysis of Measurement Results

Experiment [3] deals with pulmonary arterial smooth muscle cells. As to the kind of experiment: Suppression of proliferation of pulmonary arterial smooth muscle cells (PDGF-BB stimulation, BrdU). Format: cell-based. As to conditions: PASMC, 24 h; healthy human derived pulmonary arterial smooth muscle cells; human PDGF-BB 10 ng/mL stimulation; BrdU uptake after 1 day; test substance final concentration 3 to 10,000 nM; read-out: Human normal PASMC proliferation suppression (PDGF stimulation_IC50). In outline:
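Healthy human pulmonary arterial smooth muscle cells, serum-starved a day in 0.1% FBS medium, were treated with compound at final 3 to 10,000 nM plus human PDGF-BB (final 10 ng/mL) and BrdU. After 1 day of culture, BrdU uptake was measured with an anti-BrdU antibody.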

In experiment [4] the target is TEL-KIT fusion gene transfected cells (Ba/F3). As to the kind of experiment: Suppression of proliferation of TEL-KIT fusion gene transfected Ba/F3 cells.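 Also: viable cells quantified via formazan from tetrazolium reduction, inhibition scaled with 0.1% DMSO control as 0% and medium-only blank as 100%, IC50 from two-parameter logistic fit.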 As to conditions: read-out: KIT/BaF3 proliferation inhibition (IC50); TEL-KIT expressing Ba/F3 cells, 72 hours, final concentration 0.1 to 10,000 nM.
Sequence of TEL-KIT fusion gene transfected cells (Ba/F3) (P10721 26-976 limits assumed, change not shown): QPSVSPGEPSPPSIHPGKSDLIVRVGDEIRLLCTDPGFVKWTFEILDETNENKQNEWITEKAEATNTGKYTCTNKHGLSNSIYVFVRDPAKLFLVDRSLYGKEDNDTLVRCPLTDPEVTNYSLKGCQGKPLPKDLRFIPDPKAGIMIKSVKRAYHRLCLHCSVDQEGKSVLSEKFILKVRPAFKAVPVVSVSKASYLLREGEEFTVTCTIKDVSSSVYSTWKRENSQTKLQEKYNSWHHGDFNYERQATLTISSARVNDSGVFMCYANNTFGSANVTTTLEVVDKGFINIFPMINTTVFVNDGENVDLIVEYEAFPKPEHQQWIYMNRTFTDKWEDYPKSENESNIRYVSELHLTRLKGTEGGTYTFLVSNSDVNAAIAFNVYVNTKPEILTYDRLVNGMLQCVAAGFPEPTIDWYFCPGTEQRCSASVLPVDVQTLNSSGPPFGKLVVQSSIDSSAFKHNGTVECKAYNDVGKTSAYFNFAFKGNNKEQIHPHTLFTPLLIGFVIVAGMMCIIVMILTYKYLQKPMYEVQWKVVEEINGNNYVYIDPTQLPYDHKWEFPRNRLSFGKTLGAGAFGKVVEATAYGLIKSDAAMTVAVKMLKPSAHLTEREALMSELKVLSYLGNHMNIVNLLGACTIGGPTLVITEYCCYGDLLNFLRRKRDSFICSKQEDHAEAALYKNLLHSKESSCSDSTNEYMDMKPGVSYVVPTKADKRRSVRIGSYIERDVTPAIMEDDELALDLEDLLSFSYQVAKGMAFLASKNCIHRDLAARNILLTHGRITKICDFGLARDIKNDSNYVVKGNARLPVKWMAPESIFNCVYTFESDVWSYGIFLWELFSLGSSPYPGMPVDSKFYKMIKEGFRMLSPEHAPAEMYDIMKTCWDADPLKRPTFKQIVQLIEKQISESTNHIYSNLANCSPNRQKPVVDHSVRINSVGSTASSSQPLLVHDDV

Sequence of TEL-PDGFRβ fusion gene transfected cells (Ba/F3) (P09619 33-1106 limits assumed, change not shown): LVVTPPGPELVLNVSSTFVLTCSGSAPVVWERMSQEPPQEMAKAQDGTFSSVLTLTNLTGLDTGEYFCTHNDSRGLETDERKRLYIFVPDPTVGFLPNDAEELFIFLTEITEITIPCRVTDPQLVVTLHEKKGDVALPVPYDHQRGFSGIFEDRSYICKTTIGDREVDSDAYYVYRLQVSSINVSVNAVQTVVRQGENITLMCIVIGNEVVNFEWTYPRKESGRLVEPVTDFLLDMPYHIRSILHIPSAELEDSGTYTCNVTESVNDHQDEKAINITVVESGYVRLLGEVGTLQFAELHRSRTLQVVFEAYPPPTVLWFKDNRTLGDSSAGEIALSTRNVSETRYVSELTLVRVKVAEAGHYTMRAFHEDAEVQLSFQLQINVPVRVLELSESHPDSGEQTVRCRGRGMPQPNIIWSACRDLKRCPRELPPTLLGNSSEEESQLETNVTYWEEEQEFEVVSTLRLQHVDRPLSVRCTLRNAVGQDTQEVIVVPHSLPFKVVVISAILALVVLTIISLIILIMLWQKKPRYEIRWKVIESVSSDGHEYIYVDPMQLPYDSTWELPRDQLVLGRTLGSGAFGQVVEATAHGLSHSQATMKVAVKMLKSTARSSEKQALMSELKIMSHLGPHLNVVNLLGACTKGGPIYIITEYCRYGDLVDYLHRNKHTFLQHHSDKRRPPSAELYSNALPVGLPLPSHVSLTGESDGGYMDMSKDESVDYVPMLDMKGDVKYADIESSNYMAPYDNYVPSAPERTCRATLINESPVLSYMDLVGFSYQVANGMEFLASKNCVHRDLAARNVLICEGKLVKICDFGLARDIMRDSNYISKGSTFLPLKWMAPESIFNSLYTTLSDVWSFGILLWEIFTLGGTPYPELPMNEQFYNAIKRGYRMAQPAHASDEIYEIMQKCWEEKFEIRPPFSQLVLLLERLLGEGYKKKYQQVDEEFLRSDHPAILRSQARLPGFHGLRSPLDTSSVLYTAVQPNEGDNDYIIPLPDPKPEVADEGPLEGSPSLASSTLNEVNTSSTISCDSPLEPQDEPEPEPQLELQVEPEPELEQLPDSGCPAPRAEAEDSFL
Sequence of PDGFR-β (P09619 33-1106): as the sequence (P09619 33-1106 limits assumed, change not shown) above

Turning to `Cc1c(F)cc(C(=O)N[C@H]2CCCC[C@@H]2O)cc1Nc1cccc(-c2cccnc2)n1` [Example 81, 3-[([2,3′-bipyridin]-6-yl)amino]-5-fluoro-N-[(1S,2S)-2-hydroxycyclohexyl]-4-methylbenzamide], the IC50 is 190 nM in experiment [1], 140 nM in experiment [2], 110 nM in experiment [3] and 3300 nM in experiment [4].
On the same counts, the results for `Cc1ccc(C(=O)N[C@H]2CCCC[C@@H]2O)cc1N[C@@H](C)c1cncc(-c2ccccc2)c1` [Example 84, N-[(1S,2S)-2-hydroxycyclohexyl]-4-methyl-3-{[(1S)-1-(5-phenylpyridin-3-yl)ethyl]amino}benzamide] are 19 nM, 50 nM, 160 nM and 500 nM.
As for `Cc1ccc(C(=O)N[C@H]2CCCC[C@@H]2O)cc1N[C@@H](C)c1cncc(-c2cccnc2)c1` [Example 85, 3-{[(1S)-1-([3,3′-bipyridin]-5-yl)ethyl]amino}-N-[(1S,2S)-2-hydroxycyclohexyl]-4-methylbenzamide], the IC50 is 180 nM in experiment [1], 19 nM in experiment [2], 130 nM in experiment [3] and 4600 nM in experiment [4].
For `Cc1ccc(C(=O)N[C@H]2CCCC[C@@H]2O)cc1N[C@@H](C)c1cncc(C#Cc2ccccc2)c1` [Example 86, N-[(1S,2S)-2-hydroxycyclohexyl]-4-methyl-3-({(1S)-1-[5-(phenylethynyl)pyridin-3-yl]ethyl}amino)benzamide] the same measures were 230 nM, 42 nM, 280 nM and 1700 nM.
On the same counts, the results for `Cc1ccc(C(=O)N[C@H]2CCCC[C@@H]2O)cc1N[C@@H](C)c1cncc(-c2ccncc2)c1` [Example 87, 3-{[(1S)-1-([3,4′-bipyridin]-5-yl)ethyl]amino}-N-[(1S,2S)-2-hydroxycyclohexyl]-4-methylbenzamide] are 250 nM, 27 nM, 350 nM and 9900 nM.
For `Cc1ccc(C(=O)N[C@H]2CCCC[C@@H]2O)cc1N[C@@H](C)c1cncc(-c2ncccn2)c1` [Example 88, N-[(1S,2S)-2-hydroxycyclohexyl]-4-methyl-3-({(1S)-1-[5-(pyrimidin-2-yl)pyridin-3-yl]ethyl}amino)benzamide] the same measures were 230 nM, 43 nM, 210 nM and 6000 nM.
On to `Cc1ccc(C(=O)N[C@H]2CCCC[C@@H]2O)cc1N[C@@H](C)c1cncc(-c2ccccn2)c1` [Example 89, 3-{[(1S)-1-([2,3′-bipyridin]-5′-yl)ethyl]amino}-N-[(1S,2S)-2-hydroxycyclohexyl]-4-methylbenzamide], for which the IC50 in experiment [1] was 78 nM; in experiment [2] it was 20 nM; in experiment [3], 190 nM; in experiment [4] it was 610 nM.
On the same counts, the results for `C[C@H](Nc1cc(C(=O)N[C@H]2CCCC[C@@H]2O)ccc1Cl)c1cncc(-c2cccnc2)c1` [Example 90, 3-{[(1S)-1-([3,3′-bipyridin]-5-yl)ethyl]amino}-4-chloro-N-[(1S,2S)-2-hydroxycyclohexyl]benzamide] are 310 nM, 35 nM, 360 nM and 8300 nM.
On the same counts, the results for `Cc1ccc(C(=O)N[C@H]2CCCC[C@@H]2O)cc1NCc1cncc(Br)c1` [Example 91, 3-{[(5-bromopyridin-3-yl)methyl]amino}-N-[(1S,2S)-2-hydroxycyclohexyl]-4-methylbenzamide] are 150 nM, 26 nM, 150 nM and 2700 nM.
On the same counts, the results for `Cc1ccc(C(=O)N[C@H]2CCCC[C@@H]2O)cc1NCc1cncc(-c2ccccc2)c1` [Example 92, N-[(1S,2S)-2-hydroxycyclohexyl]-4-methyl-3-{[(5-phenylpyridin-3-yl)methyl]amino}benzamide] are 46 nM, 20 nM, 66 nM and 1400 nM.
Regarding `Cc1ccc(C(=O)N[C@H]2CCCC[C@@H]2O)cc1NCc1cncc(C#CC2CC2)c1` [Example 94, 3-({[5-(cyclopropylethynyl)pyridin-3-yl]methyl}amino)-N-[(1S,2S)-2-hydroxycyclohexyl]-4-methylbenzamide], the IC50 in experiment [1] is 49 nM; in experiment [2] it was 10 nM; in experiment [3], 90 nM; in experiment [4] it was 260 nM.
For `Cc1ccc(C(=O)N[C@H]2CCCC[C@@H]2O)cc1NCc1cncc(-c2ncccn2)c1` [Example 95, N-[(1S,2S)-2-hydroxycyclohexyl]-4-methyl-3-({[5-(pyrimidin-2-yl)pyridin-3-yl]methyl}amino)benzamide] the same measures were 120 nM, 5.7 nM, 96 nM and 1000 nM.
For `Cc1ccc(C(=O)N[C@H]2CCCC[C@@H]2O)cc1NCc1cnc2ccccc2c1` [Example 96, N-[(1S,2S)-2-hydroxycyclohexyl]-4-methyl-3-{[(quinolin-3-yl)methyl]amino}benzamide] the same measures were 200 nM, 12 nM, 72 nM and 310 nM.
For `Cc1ccc(C(=O)N[C@H]2CCCC[C@@H]2O)cc1NCc1cncc(C#CC2(O)CC2)c1` [Example 97, N-[(1S,2S)-2-hydroxycyclohexyl]-3-[({5-[(1-hydroxycyclopropyl)ethynyl]pyridin-3-yl}methyl)amino]-4-methylbenzamide] the same measures were 100 nM, 20 nM, 160 nM and 1900 nM.
`Cc1ccc(C(=O)N[C@H]2CCCC[C@@H]2O)cc1NCc1cncc(-c2ccc(C(C)(C)N)cc2)c1` [Example 98, 3-[({5-[4-(2-aminopropan-2-yl)phenyl]pyridin-3-yl}methyl)amino]-N-[(1S,2S)-2-hydroxycyclohexyl]-4-methylbenzamide]: the IC50 in experiment [1] is 140 nM; in experiment [2] it was 40 nM; in experiment [3], 160 nM; in experiment [4], greater than 10000 nM.
As to `Cc1ccc(C(=O)N[C@H]2CCCC[C@@H]2O)cc1NCc1cncc(-c2ccc(N)cc2)c1` [Example 99, 3-({[5-(4-aminophenyl)pyridin-3-yl]methyl}amino)-N-[(1S,2S)-2-hydroxycyclohexyl]-4-methylbenzamide], the IC50 in experiment [1] worked out at 13 nM; in experiment [2] it was 0.5 nM; in experiment [3], 27 nM; in experiment [4] it was 480 nM.
On the same counts, the results for `Cc1ccc(C(=O)N[C@H]2CCCC[C@@H]2O)cc1NCc1cncc(-c2cc(F)cc(F)c2)c1` [Example 100, 3-({[5-(3,5-difluorophenyl)pyridin-3-yl]methyl}amino)-N-[(1S,2S)-2-hydroxycyclohexyl]-4-methylbenzamide] are 32 nM, 17 nM, 71 nM and 8900 nM.
As to `Cc1ccc(C(=O)N[C@H]2CCCC[C@@H]2O)cc1NCc1cncc(-c2ccccc2)n1` [Example 101, N-[(1S,2S)-2-hydroxycyclohexyl]-4-methyl-3-{[(6-phenylpyrazin-2-yl)methyl]amino}benzamide], the IC50 is 170 nM in experiment [1], 56 nM in experiment [2], 71 nM in experiment [3] and 9000 nM in experiment [4].
On the same counts, the results for `Cc1ccc(C(=O)N[C@H]2CCCC[C@@H]2O)cc1NCc1cncc(-c2cccs2)c1` [Example 102, N-[(1S,2S)-2-hydroxycyclohexyl]-4-methyl-3-({[5-(thiophen-2-yl)pyridin-3-yl]methyl}amino)benzamide] are 23 nM, 2 nM, 30 nM and 620 nM.
For `Cc1ccc(C(=O)N[C@H]2CCCC[C@@H]2O)cc1NCc1cncc(-c2ccsc2)c1` [Example 103, N-[(1S,2S)-2-hydroxycyclohexyl]-4-methyl-3-({[5-(thiophen-3-yl)pyridin-3-yl]methyl}amino)benzamide] the same measures were 50 nM, 4.1 nM, 40 nM and 2500 nM.
As to `O=C(N[C@H]1CCCC[C@@H]1O)c1ccc(Cl)c(NCc2cncc(-c3ncccn3)c2)c1` [Example 104, 4-chloro-N-[(1S,2S)-2-hydroxycyclohexyl]-3-({[5-(pyrimidin-2-yl)pyridin-3-yl]methyl}amino)benzamide], the IC50 in experiment [1] was found to be 260 nM; in experiment [2] it was 3.4 nM; in experiment [3], 38 nM; in experiment [4], 3400 nM.
On the same counts, the results for `Cc1ccc(C(=O)N[C@H]2CCCC[C@@H]2O)cc1NCc1cnn2ccsc12` [Example 105, N-[(1S,2S)-2-hydroxycyclohexyl]-4-methyl-3-{[(pyrazolo[5,1-b][1,3]thiazol-7-yl)methyl]amino}benzamide] are 230 nM, 4.7 nM, 28 nM and 920 nM.
